Three compounds from ChEMBL document CHEMBL1142404, “Synthesis of 2-modified aristeromycins and their analogs as potent inhibitors against Plasmodium falciparum S-adenosyl-L-homocysteine hydrolase” (Bioorg Med Chem, 2008) can be followed below.

Data set [1] deals with Adenosylhomocysteinase (Plasmodium falciparum 3D7, UniProt P50250). Put plainly: Inhibition of Plasmodium falciparum SAHH.
The target of data set [2] is Adenosylhomocysteinase (Homo sapiens, UniProt P23526). Description: Inhibition of human SAHH.
Data set [3] concerns adenosine deaminase. Put plainly: Metabolic stability in presence of calf intestinal adenosine deaminase assessed as compound remaining after 15 mins. The class given is ADME. To be noted: cattle, read-out: Activity.

Adenosylhomocysteinase (Plasmodium falciparum 3D7, UniProt P50250), sequence (P50250 whole entry): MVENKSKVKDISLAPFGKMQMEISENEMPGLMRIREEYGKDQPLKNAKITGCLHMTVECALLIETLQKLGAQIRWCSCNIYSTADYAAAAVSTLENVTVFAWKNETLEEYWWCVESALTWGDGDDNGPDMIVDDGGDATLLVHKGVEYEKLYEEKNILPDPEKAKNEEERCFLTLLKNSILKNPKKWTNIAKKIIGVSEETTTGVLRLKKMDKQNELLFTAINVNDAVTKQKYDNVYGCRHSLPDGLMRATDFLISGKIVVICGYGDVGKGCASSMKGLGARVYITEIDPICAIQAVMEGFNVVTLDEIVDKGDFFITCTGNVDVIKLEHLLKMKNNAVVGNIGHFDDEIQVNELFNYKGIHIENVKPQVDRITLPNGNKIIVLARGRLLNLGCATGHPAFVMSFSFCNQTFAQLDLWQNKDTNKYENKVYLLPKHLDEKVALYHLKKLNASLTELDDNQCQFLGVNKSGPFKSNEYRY
Adenosylhomocysteinase (Homo sapiens, UniProt P23526), sequence (P23526 whole entry): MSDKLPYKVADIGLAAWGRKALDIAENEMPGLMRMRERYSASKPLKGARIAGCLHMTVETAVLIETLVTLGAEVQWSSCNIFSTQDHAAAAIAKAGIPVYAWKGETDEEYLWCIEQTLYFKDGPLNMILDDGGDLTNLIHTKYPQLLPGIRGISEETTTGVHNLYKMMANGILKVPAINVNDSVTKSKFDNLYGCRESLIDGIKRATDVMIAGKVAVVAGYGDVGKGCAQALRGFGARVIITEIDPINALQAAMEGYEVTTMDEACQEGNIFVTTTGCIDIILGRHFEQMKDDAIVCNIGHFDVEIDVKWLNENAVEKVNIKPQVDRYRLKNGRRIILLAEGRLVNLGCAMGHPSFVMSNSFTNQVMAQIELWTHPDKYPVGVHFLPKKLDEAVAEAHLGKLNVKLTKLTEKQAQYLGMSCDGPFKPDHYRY

One may read the IC50 as the concentration that gives 50% inhibition. As for `Nc1nc(N)c2ncn([C@@H]3C[C@H](CO)[C@@H](O)[C@H]3O)c2n1`, the figures for the half-inhibitory concentration (IC50) in data set [1] and in data set [2] were 4.51 µM and 90.7 µM, respectively. In data set [3], the remaining at 0.25 h was found to be 95.2%.
Taken in the same sequence, the figures for `Nc1nc(F)nc2c1ncn2[C@@H]1C[C@H](CO)[C@@H](O)[C@H]1O` were 1.98 µM, 47.2 µM and 99.5%.
Consider `Nc1ncnc2c1ncn2[C@@H]1C[C@H](CO)[C@@H](O)[C@H]1O` [ARISTEROMYCIN], for which, in data set [3], the remaining at 0.25 h is 22.4%.
